Experimental data published in patent US9676798B2, “Cationic oligonucleotides, automated methods for preparing same and their uses” (CENTRE NATIONAL DE LA RECHERCHE SCIENTIFIQUE (CNRS), priority 2005, dated 2017).

System: Hela cells
Assay: Penetration of cationic oligonucleotides into cells (fluorescence microscopy, propidium iodide)
Format: cell-based
Settings: for Cell fluorescence after incubation (penetration into cells): 2 μM, four hours, serum-free MEM, no carrier
Method: Hela cells, grown in 10% (v/v) fetal calf serum containing MEM medium, were plated at 50-60×10^3 cells/well into 4-well chambered borosilicate Lab-Tek dishes one day prior to the experiment. Complete medium was replaced by 0.5 ml serum-free MEM medium. A 5′-cationic fluorescein-conjugated oligonucleotide F—S18N19 (where N19 is TCGAAGTACTCAGCGTAAG (SEQ ID NO:7)) formulation was prepared in sterile PBS. It was added to the cells to a final concentration of 2 μM. Four hours later, the medium was replaced by 1 ml of fresh serum-containing medium. A first picture was taken with a Zeiss axiovert 25 fluorescence microscope, equipped with a FITC filter (FIG. 14A, left). […] After 24 h, the medium was replaced with 1 ml of phenol red-free MEM medium. Propidium iodide (1 mM in water) was added to a final concentration of 10 μM.

| Substance | Cell fluorescence after incubation (penetration into cells) | Propidium iodide exclusion and retained fluorescence (after 24 h, propidium iodide 10 μM) |
| --- | --- | --- |
| F—N19: control fluorescein oligonucleotide without spermine, N19 is TCGAAGTACTCAGCGTAAG (5' fluorescein conjugate, no spermine, further chemistry not given here) [reference compound] | no fluorescence | – |
| F—S18N19: 5′-cationic fluorescein-conjugated oligonucleotide, N19 is TCGAAGTACTCAGCGTAAG, 18 spermine residues (5' fluorescein and 18 spermine residues attached, backbone chemistry not given here) | All cells became fluorescent | majority of propidiumless healthy cells that were still fluorescent |
